This note sets out measurements from paper PMC12040169 (PLOS Biology, 2025).

A short description of this data set: in vitro. The settings on record: human, hela cells, % viability.

As for `Oc1ccc(/C=N/c2ccc(O)c(-c3nc4ccccc4s3)c2)cc1O` [CBK262473], the viability at 28.5 h, 10 µM was found to be 98.9%.

For `Cc1cc(C)c2c(c1)cc(C)c1nn(CC(=O)N3CCCC3)c(=O)n12` [CBK283876], the viability at 28.5 h, 10 µM was 85.5%. On to `CCCNCCc1ccc(NC(=O)NCCc2ccccc2)cc1` [CBK173873T], for which the viability at 28.5 h, 10 µM is 93.5%. On to `COc1cc(C)c(Nc2cccc(-c3ccsc3)n2)cc1OC` [CBK037025], for which the viability at 28.5 h, 10 µM turned out to be 104%. Consider `COc1ncccc1C(=O)N1CCN(CCc2ccccc2)CC1` [CBK200226], for which the viability at 28.5 h, 10 µM came out at 88.4%. As for `Cc1ccc(S(=O)(=O)Nc2ccnc(-c3ccc(CO)cc3)n2)cc1` [CBK067477], the figure is 90.4%; as for `CC(CNC(=O)C(C)(C)C)NC(=O)C(C)(C)C` (stereo not shown) [CBK265443], 93.6%; as for `O=C(C1CCCCC1)N1CC(n2nc(-c3ccccc3)ccc2=O)C1` [CBK284616], 92.8%. Consider `O=C(Nc1nnc(-c2ccco2)o1)c1ccc(N2C(=O)CCC2=O)cc1` [CBK287423], for which the viability at 28.5 h, 10 µM was found to be 90.7%.

`Nc1c(-c2cccc(C(F)(F)F)c2)cnc2cccnc12` [CBK081187]: the viability at 28.5 h, 10 µM was determined as 88.7%.

On to `Cc1nn(-c2ccccn2)c(C)c1[C@@H]1C=C[C@@H](NC(=O)NC(C)C)C1` [CBK289168], for which the viability at 28.5 h, 10 µM worked out at 91.4%. Take `Cc1cc(C)cc(OCC(=O)Nc2c(C#N)c(C)nn2C)c1` [CBK304791]: the viability at 28.5 h, 10 µM was found to be 110%.

Consider `Cc1cnn(C)c1CN1CCNC(=O)C1c1ccccc1C(F)(F)F` (stereo not shown) [CBK304260], for which the viability at 28.5 h, 10 µM came to 86.2%. For `c1ccc2c(c1)nnn2CNCn1nnc2ccccc21` [CBK261114], the viability at 28.5 h, 10 µM came out at 85.4%. Regarding `Nn1c(SCC(=O)Nc2ccc3c(c2)OCO3)nnc1-c1ccccn1` [CBK267550], the viability at 28.5 h, 10 µM was 101%.

With `O=C(O)CCSc1nc2ccccc2nc1N1CCCC1` [CBK107862], the viability at 28.5 h, 10 µM was found to be 95.7%. As to `COC(=O)C1=C(C)N(CCc2ccc(OC)c(OC)c2)C(=O)/C1=C\c1ccc(O)cc1` [CBK263722], the viability at 28.5 h, 10 µM is 89.6%.

`COc1cc(CNC(C)(C)CO)ccc1OCc1ccc(Cl)cc1` [CBK266433C]: the viability at 28.5 h, 10 µM is 92%. Regarding `O=C(Nc1ccc(F)cc1)c1cccc(NS(=O)(=O)c2cc(Cl)sc2Cl)c1` [CBK038980], the viability at 28.5 h, 10 µM came out at 95.8%. As to `Cc1ccc(CC(=O)N2CCC(Cc3ccccc3-c3ccccc3)(C(N)=O)CC2)cc1` [CBK285740], the viability at 28.5 h, 10 µM turned out to be 110%. With `O=C1NC/C=C/CC2(CCN(C(=O)c3cccnn3)CC2)C(=O)NCCOc2ccccc21` [CBK292095], the viability at 28.5 h, 10 µM amounted to 108%. Consider `Cn1c(=O)c2[nH]c(N3CCCNCC3)nc2n(C)c1=O` [CBK270030], for which the viability at 28.5 h, 10 µM was 97%.

For `O=C(Cc1ccccc1)N/N=C/C1CC2CC1CC2C(F)(F)F` (stereo not shown) [CBK021488], the viability at 28.5 h, 10 µM worked out at 93%. Consider `CN1CCc2c(sc3nc(SCc4ccc(Cl)c(Cl)c4)n(-c4ccccc4)c(=O)c23)C1` [CBK263706], for which the viability at 28.5 h, 10 µM amounted to 94.2%.

Consider `COc1ccc(/C(C)=N/NC(=N)SC2CC(=O)N(c3ccc(C(=O)O)cc3)C2=O)cc1F` (stereo not shown) [CBK262805], for which the viability at 28.5 h, 10 µM is 107%. Turning to `CC(C)c1nnc(CCC(=O)N2CCC(c3ccccc3)C2)o1` (stereo not shown) [CBK281925], the viability at 28.5 h, 10 µM amounted to 89.3%. Consider `COCC(=O)N1CCN2C(=O)c3ccc(Cl)cc3NC(=O)[C@H]2C1` [CBK289588], for which the viability at 28.5 h, 10 µM stood at 84.6%. `Cc1ccnn1CCC(=O)N1CCC(c2cc3cccnc3[nH]2)CC1` [CBK284912]: the viability at 28.5 h, 10 µM came out at 95.2%.

Take `O=C1/C(=C/c2ccc(OCc3cccc4ccccc34)cc2)SC(=S)N1Cc1cccnc1` [CBK264669]: the viability at 28.5 h, 10 µM worked out at 95.6%.

Consider `COCCNC(=O)c1ccc(-c2ccccc2)nc1N(C)C` [CBK106049], for which the viability at 28.5 h, 10 µM is 99.8%.

Regarding `C=CCn1c(Cc2csc(NC(=O)c3ccc(C)cc3)n2)n[nH]c1=S` [CBK295292], the viability at 28.5 h, 10 µM is 96.4%. `NC(=O)CN1C(=O)[C@@H]2CCCN2C(=O)c2ccccc21` [CBK283090]: the viability at 28.5 h, 10 µM is 110%. On to `O=c1n(CC2CCCCC2)c2ccccc2n1S(=O)(=O)CCc1cccc2ccccc12` [CBK106525], for which the viability at 28.5 h, 10 µM was 101%. Turning to `CCSc1nnnn1-c1cccc(NC(C)=O)c1` [CBK305511], the viability at 28.5 h, 10 µM was determined as 94.4%. In the case of `CC(=O)N1CCC(C(=O)NC(=O)Nc2ccccc2F)CC1` [CBK034848], the viability at 28.5 h, 10 µM amounted to 107%. As for `CCN(CC)C(=O)c1ccc2[nH]ccc2c1` [CBK149072], the viability at 28.5 h, 10 µM was 97.1%. To `CC1=NN(c2ccc([N+](=O)[O-])cc2)C(=O)/C1=C\NCCc1ccc(S(N)(=O)=O)cc1` [CBK263006] belongs 92.6%; to `O=S1(=O)CCN(Cc2cnn(-c3ccc(OC(F)(F)F)cc3)n2)CC1` [CBK112883], 95.3%; to `Cc1ccc(OC(C)C(=O)N(C)c2ccccc2)cc1` (stereo not shown) [CBK268645], 111%. Regarding `COc1ccc(CCNC(=O)c2n[nH]c(=O)c3ccccc23)cc1OC` [CBK270160], the viability at 28.5 h, 10 µM amounted to 87.6%. As to `O=C(O)c1cc(Sc2nnnn2-c2ccccc2)c2ccccc2c1O` [CBK006925], the viability at 28.5 h, 10 µM turned out to be 87.8%. As for `Cc1ccc(OCC(=O)O/N=C(\N)c2ccccn2)cc1C` [CBK264755], the figure is 101%.

In the case of `CN(C)CCn1c2c(c3ccccc31)CCCn1cnnc1-2` [CBK267712C], the viability at 28.5 h, 10 µM worked out at 97.2%.

As to `COc1ccc([C@@]23CC[C@@H](NC(=O)Nc4ccccc4C(F)(F)F)C[C@@H]2N(C)CC3)cc1OC` [CBK036466T], the viability at 28.5 h, 10 µM worked out at 106%. Regarding `Cn1cc(CN2CCC(c3cncc(-c4cccc(C(F)(F)F)c4)n3)CC2)cn1` [CBK286150], the viability at 28.5 h, 10 µM amounted to 78.4%.

As for `Cc1cc(C)cc(NC(=O)C(Cc2ccccc2)C(=O)Nc2cc(C)cc(C)c2)c1` [CBK266165], the viability at 28.5 h, 10 µM worked out at 106%. For `COc1ccccc1C1(NC(=O)c2cnsc2)CCCC1` [CBK283643], the viability at 28.5 h, 10 µM was 84.5%. Regarding `CCOc1ccccc1C(=O)N1CCC(Cc2ccc(-c3ccccc3)cc2)(C(N)=O)CC1` [CBK285775], the viability at 28.5 h, 10 µM worked out at 97%.

In the case of `COc1ccc([C@@]23CC=C(N(Cc4ccccc4)C(=O)Nc4ccc(F)c(F)c4)C[C@@H]2N(C)CC3)cc1OC` [CBK050179], the viability at 28.5 h, 10 µM was 94.9%. To `COc1ccc([C@@]23CC[C@@H](NC(=O)Nc4ccc(F)c(F)c4)C[C@@H]2N(C)CC3)c(F)c1OC` [CBK067405] belongs 102%; to `COc1ccc(CCNS(=O)(=O)c2cccc([N+](=O)[O-])c2)cc1OC` [CBK263618], 89.5%. To `Nc1nc2c(cc1C(=O)NCc1ccccc1)CN(C(=O)CCCc1ccc(F)cc1)CC2` [CBK285887] belongs 95.3%. As to `Cc1ncccc1C(=O)N1CCC2(CCc3ccccc3C(=O)N2)C1` (stereo not shown) [CBK283338], the viability at 28.5 h, 10 µM came to 108%. In the case of `O=c1oc2ccccc2c2c1nnn2CCCN1CCOCC1` [CBK261470C], the viability at 28.5 h, 10 µM is 95.2%.

For `CC(CN1CCCC1)NC(=O)c1ccc2c(c1)ncn2C` (stereo not shown) [CBK281715], the viability at 28.5 h, 10 µM turned out to be 102%. In the case of `CC(NC(=O)N1CCCCC1CO)c1ccccc1` (stereo not shown) [CBK155988], the viability at 28.5 h, 10 µM worked out at 93.1%. For `CNCC1CCCN1S(=O)(=O)c1ccc(OCc2ncnn2C)cc1` (stereo not shown) [CBK304500], the viability at 28.5 h, 10 µM amounted to 90%.

On to `CCN(CC)C(=O)COc1ccc(NC(=O)Nc2cc(C)on2)cc1Cl` [CBK305734], for which the viability at 28.5 h, 10 µM worked out at 104%.

As to `O=C(O)c1cccc(NS(=O)(=O)c2ccc(F)c(C(F)(F)F)c2)c1` [CBK155693], the viability at 28.5 h, 10 µM came out at 97.2%.

Consider `CCOC(=O)C1CCN(C(=O)c2ccc(OC)cc2)CC1` [CBK074220], for which the viability at 28.5 h, 10 µM was 99.2%. Take `FC(F)(F)c1nc2ccccc2nc1OC1CCOC1` (stereo not shown) [CBK115806]: the viability at 28.5 h, 10 µM stood at 99.6%. As to `O=S(=O)(Nc1cccc(Cl)c1)c1ccc(Cl)c(Cl)c1` [CBK044636], the viability at 28.5 h, 10 µM turned out to be 79.3%. As for `CC1=CCN(C(=O)c2cccc(S(=O)(=O)NCC3CCCO3)c2)CC1` (stereo not shown) [CBK304669], the figure is 95.5%. As to `OC1(Cn2ccc3ncccc32)CCN(CC2CC=CCC2)CC1` (stereo not shown) [CBK284782], the viability at 28.5 h, 10 µM was 93.6%.

`O=C(CCN1CCCC12CCc1[nH]c3ccccc3c1C2)c1ccc(F)cc1` (stereo not shown) [CBK084593]: the viability at 28.5 h, 10 µM was found to be 92.6%. Take `COc1ccc(OC)c(NC(=O)CSc2nnc(-c3ccncc3)n2C)c1` [CBK266623]: the viability at 28.5 h, 10 µM came to 103%. In the case of `Fc1ccc(-c2cccc(N3CCN(c4ccccn4)CC3)n2)cc1Cl` [CBK036877], the viability at 28.5 h, 10 µM stood at 104%. Consider `C[N+](C)(C)c1ccc(C(=O)O)cc1` [CBK260929B], for which the viability at 28.5 h, 10 µM was found to be 90%. For `CCOC(=O)C1CCCN(S(=O)(=O)c2cc(C)c(Cl)cc2C)C1` (stereo not shown) [CBK044846], the viability at 28.5 h, 10 µM was 108%. In the case of `CN1C2CCC1CC(OC(=O)CCN1CCCC1)C2` (stereo not shown) [CBK261466], the viability at 28.5 h, 10 µM came out at 95.3%. As for `O=c1cc(N2CCOCC2)cnn1CCCCOc1ccccc1` [CBK307327], the figure is 97.9%. On to `OCCN1CCN(c2cc(Nc3ccc(Oc4ccccc4)cc3)nc3ccnn23)CC1` [CBK037185], for which the viability at 28.5 h, 10 µM came out at 94.9%. `CCOc1ccc(S(=O)(=O)NCCCN2CCOCC2)c2ccccc12` [CBK018421]: the viability at 28.5 h, 10 µM stood at 89.8%. To `CC(C)CNC(=O)N1CCNC(=O)C1` [CBK155864] belongs 86.4%; to `O=C(Nc1nc(-c2ccco2)c(-c2ccncc2)s1)C1CC1` [CBK284494], 87.4%; to `CC1CC1C(=O)NCCc1c[nH]c2cccc(C3(O)CCOCC3)c12` (stereo not shown) [CBK284840], 95.7%.

Turning to `Cc1cc(Sc2nc[nH]n2)c2c(Cl)ccc(Cl)c2n1` [CBK025959], the viability at 28.5 h, 10 µM was 109%.

Regarding `CC1=C[C@@H](CNC(=O)Nc2ccccc2)[C@H](C(C)C)C[C@H]1CC(=O)N1CCN(C)CC1` [CBK289048], the viability at 28.5 h, 10 µM amounted to 121%.

`CC1SC2(C(=O)Nc3ccccc32)N(c2ccc(F)cc2)C1=O` (stereo not shown) [CBK093463]: the viability at 28.5 h, 10 µM was 96.8%.
